Experimental data as given in PMC5698418 (Nature Communications, 2017).
“And” between values parts separate entries of the source, which are not always exact repeats. Equal entries are not always repeated. Structures can show the parent of a compound that is named as a salt. Where two headings read alike, the source gives them in different places. Non-standard residues stand in square brackets, D forms with d. Residues, ends and D or L forms follow the SMILES beside them. dTrp(2-Me) = Cc1[nH]c2ccccc2c1C[C@@H](N)C(=O)O; αMeP = C[C@@]1(C(=O)O)CCCN1

Tested on: BDNF-induced nuclear Arc expression in primary cortical neurons
Assay: Chemogenomic screen: high-content image-based assay of BDNF-induced nuclear Arc expression (96-well)
Format: cell-based, mouse
In short: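 DIV13 mouse primary cortical neurons (30,000 cells/well) are treated with compound at 16.7 µM and BDNF, in three biological replicates. Arc and acetyl-H3K9 are immunostained and imaged at ×40, and nuclear Arc signal is quantified automatically using acetyl-H3K9 as the nuclear mask.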

[1] = chemogenomic (SMART) screen, BDNF-induced nuclear Arc expression, primary cortical neurons, BDNF control 19.5
[2] = nuclear Arc-positive cells relative to DMSO + BDNF control, negative values = decrease
[3] = BDNF-induced nuclear Arc expression, primary cortical neurons, chemogenomic screen
[4] = nuclear Arc-positive cells relative to DMSO control (BDNF), negative = decrease

| SMILES | Percentage of cell with nuclear Arc immunostaining above 2σ threshold [1] [%] | Fold-change — Normalized to DMSO control (BDNF) [2] | also measured |
| --- | --- | --- | --- |
| O=C(c1ccc(F)cc1)C1CCN(CCn2c(=O)[nH]c3ccccc3c2=O)CC1 [Ketanserin] | 20.4 | 1.0 fold |  |
| CN1CCC[C@@H]1Cc1c[nH]c2ccc(CCS(=O)(=O)c3ccccc3)cc12 [Eletriptan] |  |  | Percentage of cell with nuclear Arc immunostaining above 2σ threshold [3]: 3.7% |
| NC(=O)CCC/N=C(\c1ccc(Cl)cc1)c1cc(F)ccc1O [Progabide] | 19.5 | 1.0 fold |  |
| CCN1CCCC1CNC(=O)c1cc(S(N)(=O)=O)ccc1OC (centres unmarked) [Sulpiride] | 26.5 | 1.4 fold |  |
| Cc1[nH]c2ccccc2c1C[C@@H](NC(=O)[C@@H](N)Cc1cnc[nH]1)C(=O)N[C@@H](C)C(=O)N[C@@H](Cc1c[nH]c2ccccc12)C(=O)N[C@H](Cc1ccccc1)C(=O)N[C@@H](CCCCN)C(N)=O [Hexarelin] (H-H[dTrp(2-Me)]AW[dF]K-NH2) | 17.9 | -1.1 fold |  |
| COc1ccc(CNC(=O)Nc2ncc([N+](=O)[O-])s2)cc1 [AR-A014418] |  |  | Percentage of cell with nuclear Arc immunostaining above 2σ threshold [3]: 4.9%; Fold-change — Normalized to DMSO control (BDNF) [4]: -4.0 fold |
| O=C1c2ccccc2S(=O)(=O)N1CCCCN1CCN(c2ncccn2)CC1 [Ipsapirone] | 27.4 | 1.4 fold |  |
| O=C([O-])CCCNC(=O)c1cccnc1.[Na+] [Picamilon sodium salt] | 29.2 | 1.5 fold |  |
| NS(=O)(=O)c1cc2c(cc1Cl)NC(C1CC3C=CC1C3)NS2(=O)=O (centres unmarked) [Cyclothiazide] |  |  | Percentage of cell with nuclear Arc immunostaining above 2σ threshold [3]: 8.4% |
| NC(=O)C1=CN([C@@H]2O[C@H](COP(=O)(O)OP(=O)(O)OC[C@H]3O[C@@H](n4cnc5c(N)ncnc54)[C@H](O)[C@@H]3O)[C@@H](O)[C@H]2O)C=CC1 [NADH] | 25.0 | 1.3 fold |  |
| CNC(=O)[C@@H](Cc1ccccc1)N(C)C(=O)[C@@H](Cc1ccc2ccccc2c1)N(C)C(=O)/C=C/CC(C)(C)N [Tabimorelin] |  |  | Percentage of cell with nuclear Arc immunostaining above 2σ threshold [3]: 7.1% |
| COc1ccc(-c2oc3c(CC=C(C)C)c(O[C@@H]4O[C@H](CO)[C@@H](O)[C@H](O)[C@H]4O)cc(O)c3c(=O)c2O[C@@H]2O[C@@H](C)[C@H](O)[C@@H](O)[C@H]2O)cc1 [Icariin] | 43.8 | 2.2 fold |  |
| CNCCCN1c2ccccc2CCc2ccccc21 [Desipramine] |  |  | Percentage of cell with nuclear Arc immunostaining above 2σ threshold [3]: 11.3% |
| C[C@@]1(C(=O)N[C@@H](CCC(=O)O)C(=O)O)CCCN1C(=O)CN [NNZ-2566] (H-Gly-[αMeP]-Glu-OH) |  |  | Percentage of cell with nuclear Arc immunostaining above 2σ threshold [3]: 6.7%; Fold-change — Normalized to DMSO control (BDNF) [4]: -2.9 fold |
| C[C@]12N[C@H](Cc3ccccc31)c1ccccc12 [Dizocilpine] |  | 1.1 fold | Percentage of cell with nuclear Arc immunostaining above 2σ threshold: 21.2% |
| CC12CC3CC(C)(C1)CC(N)(C3)C2 [Memantine] | 17.1 |  |  |
| CN(C)CC(c1ccc(O)cc1)C1(O)CCCCC1 (centres unmarked) [Desvenlafaxine] | 33.0 | 1.7 fold |  |
| OCCOCCN1CCN(C(c2ccccc2)c2ccc(Cl)cc2)CC1 (centres unmarked) [Hydroxyzine dihydrochloride] | 27.2 | 1.4 fold |  |
| OCCN1CCN(CCCN2c3ccccc3Sc3ccc(Cl)cc32)CC1 [Perphenazine] |  |  | Percentage of cell with nuclear Arc immunostaining above 2σ threshold [3]: 1.0% |
| O=C(O)C(Cc1c[nH]c2ccccc12)N1C(=O)c2ccccc2C1=O (centres unmarked) [RG-108] |  | 1.8 fold and 1.4 fold | Percentage of cell with nuclear Arc immunostaining above 2σ threshold: 35.1% and 27.5% |

| SMILES | Percentage of cell with nuclear Arc immunostaining above 2σ threshold [1] [%] | Fold-change — Normalized to DMSO control (BDNF) [2] | also measured |
| --- | --- | --- | --- |
| CN(C)CCc1c[nH]c2ccc(C[C@H]3COC(=O)N3)cc12 [Zolmitriptan] | 42.5 | 2.2 fold |  |
| CN1C(=O)CC[C@H]1c1cccnc1 [Cotinine] | 30.8 | 1.6 fold |  |
| O=C(O)c1cccc(-c2noc(-c3ccccc3F)n2)c1 [Ataluren] | 38.6 | 2.0 fold |  |
| Cc1cc(-c2ccccc2)nnc1NCCN1CCOCC1 [Minaprine] | 21.8 | 1.1 fold |  |
| CNC(=O)N1N=C(c2ccc(N)cc2)c2cc3c(cc2CC1C)OCO3 (centres unmarked) [GYKI-53655] | 35.7 | 1.8 fold |  |
| CN1C(=O)CCS(=O)(=O)C1c1ccc(Cl)cc1 (centres unmarked) [Chlormezanone] |  | 1.3 fold | Percentage of cell with nuclear Arc immunostaining above 2σ threshold: 25.9% |
| CC(CN(C)C)CN1c2ccccc2CCc2ccccc21 (centres unmarked) [Trimipramine maleate] | 21.9 | 1.1 fold |  |
| Cn1c(=O)c2c(ncn2CC(O)CO)n(C)c1=O (centres unmarked) [Dyphylline] | 17.0 |  |  |
| O=C(O)c1cc2cc(O)c(O)cc2c(C(=O)c2ccc(O)c(O)c2)n1 [NBI-31772] |  |  | Percentage of cell with nuclear Arc immunostaining above 2σ threshold: 2.7%; Fold-change — Normalized to DMSO control (BDNF) [4]: -7.3 fold |
| COc1ccc(C2CNC(=O)C2)cc1OC1CCCC1 (centres unmarked) [Rolipram] | 21.4 | 1.1 fold |  |
| OC(CCN1CCCCC1)(c1ccccc1)C1CCCCC1 (centres unmarked) [Benzhexol hydrochloride] | 20.4 | 1.0 fold |  |
| C#CCN(C)[C@H](C)Cc1ccccc1 [Selegiline] |  | 1.5 fold | Percentage of cell with nuclear Arc immunostaining above 2σ threshold: 29.8% |
| COc1ccc2[nH]cc(CCNC(C)=O)c2c1 [Melatonin] | 25.2 | 1.3 fold |  |
| C=C[C@@]1(C)CC(=O)[C@]2(O)[C@@]3(C)[C@@H](O)CCC(C)(C)[C@@H]3[C@H](O)[C@H](OC(C)=O)[C@@]2(C)O1 [Forskolin] | 29.3 | 1.5 fold |  |
| COCCCC/C(=N\OCCN)c1ccc(C(F)(F)F)cc1 [Fluvoxamine] |  |  | Percentage of cell with nuclear Arc immunostaining above 2σ threshold [3]: 8.5% |
| CCN(CC)C(C)CN1c2ccccc2Sc2ccccc21 (centres unmarked) [Ethopropazine] | 27.2 | 1.4 fold |  |
| Cl.O=C(O)C1CCCN(CCC=C(c2ccccc2)c2ccccc2)C1 (centres unmarked) [SKF 89976A hydrochloride] |  | 1.1 fold | Percentage of cell with nuclear Arc immunostaining above 2σ threshold: 21.6% |
| O=c1[nH]c2ccccc2n1CCCN1CCC(n2c(=O)[nH]c3cc(Cl)ccc32)CC1 [Domperidone] | 15.3 |  |  |
| CNC(C)C1CCC(N)C(OC2C(N)CC(N)C(OC3OCC(C)(O)C(NC)C3O)C2O)O1 (centres unmarked) [Gentamicin] |  |  | Percentage of cell with nuclear Arc immunostaining above 2σ threshold [3]: 10.3% |
